{"source": "patent US20110124523A1", "about": "“High Throughput Method for Detecting Apoptosis of Embryonic Stages of Metazoan Helminthic Parasites” (INSTITUTE OF LIFE SCIENCES, priority 2009, published 2011)", "key": {"[1]": {"test_system": "embryonic stages of S. digitata", "assay": "Intra cellular cleavage of caspase substrate PARP, anti cleaved PARP-PE staining", "assay_type": "cell-based, Setaria digitata", "conditions": "24 hr", "protocol": "Adult female filarial worms Setaria digitata were collected from the peritoneum of cattle, slaughtered at a nearby abattoir in sterile Hanks Balanced Salt Solution (HBSS) medium (Sigma H 2387-1L) and transported to the laboratory in a sterile container. The medium containing 1% glucose (Sigma G 7528), Penicillin 100 units/ml, Streptomycin 100 μg/ml (Sigma P 4333). And Amphotericin-B 0.25 μg/ml (Sigma A 2942) was buffered with NaHCO3 (Sigma S 5761). About 5 to 7 worms were taken in a petridish, washed three times in medium, dissected into small pieces in 10 ml of medium under sterile conditions and incubated at 37° C. for 30 minutes to allow the release of embryonic stages (eggs and microfilariae) into the medium. The embryonic stages were harvested into sterile 15 ml. centrifuge tubes and washed three times by centrifuging at 300 g for 10 minutes each with medium and the final pellet was suspended in 1 ml. of RPMI-1640 medium (Sigma R 8005) supplemented with 10% FBS (Sigma F 2442) The number of embryonic stages of S. digitata in the above preparation were counted using light microscope, and the suspension was taken in RPMI-1640 medium containing 10% FBS at 1×10^5 embryonic stages/ml. One ml. each was dispensed into individual wells of a 24 well tissue culture plate. One set of wells was taken as untreated control containing only medium with 10% FBS. […] Motility of the Mf was scored under an inverted microscope. After appropriate treatment and incubation, each set of the cultured embryonic stages of S. digitata were harvested from the 24 well tissue culture plate separately in 15 ml. sterile centrifuge tubes, washed with PBS twice and stained as per requirement following manufacturer's instructions as described below. This was followed by two times washing with PBS and final suspension of the stained embryonic stages was taken in 0.5 ml of sheath fluid (BD Biosciences 342003) before their acquisition in the flow cytometer (BD FACS Calibur, Becten and Dickinson, USA). Analysis was performed on 10,000-acquired events depicted as Dot Plots and Histogram Plots using Cellquest Pro soft ware. All plots were representative of at least 3 experiments. The distinctly clustered populations obtained consistently in the Dot plots for the intra uterine embryonic stages of S. digitata (FIG. 1 a) were gated for Mfs (R-1) and eggs (R-2 and R-3) and analyzed for different assays for apoptosis as described below. After in vitro culture for 24 hours with apoptosis inducing reagents the embryonic stages were harvested in 15 ml. sterile centrifuge tubes and fixed for 60 minutes at 0° C. in 1% paraformaldehyde (Sigma P 6148) in PBS. The suspension was washed first with PBS and then with 1× permeabilisation buffer (eBioscience 00-8333-56) and finally resuspended in 100 μl of 1× permeabilisation buffer at 1×10^5 embryonic stages per ml. This suspension was then incubated for 45 minutes with 20 μl of anti cleaved PARP-PE (BD Biosciences 552933). This was followed by washing with PBS twice and analysis by Flow cytometer."}, "[2]": {"test_system": "embryonic stages of S. digitata", "assay": "Intra cellular expression of CED-4 protein, flow cytometry", "assay_type": "cell-based, Setaria digitata", "conditions": "24 hr", "protocol": "Adult female filarial worms Setaria digitata were collected from the peritoneum of cattle, slaughtered at a nearby abattoir in sterile Hanks Balanced Salt Solution (HBSS) medium (Sigma H 2387-1L) and transported to the laboratory in a sterile container. The medium containing 1% glucose (Sigma G 7528), Penicillin 100 units/ml, Streptomycin 100 μg/ml (Sigma P 4333). And Amphotericin-B 0.25 μg/ml (Sigma A 2942) was buffered with NaHCO3 (Sigma S 5761). About 5 to 7 worms were taken in a petridish, washed three times in medium, dissected into small pieces in 10 ml of medium under sterile conditions and incubated at 37° C. for 30 minutes to allow the release of embryonic stages (eggs and microfilariae) into the medium. The embryonic stages were harvested into sterile 15 ml. centrifuge tubes and washed three times by centrifuging at 300 g for 10 minutes each with medium and the final pellet was suspended in 1 ml. of RPMI-1640 medium (Sigma R 8005) supplemented with 10% FBS (Sigma F 2442) The number of embryonic stages of S. digitata in the above preparation were counted using light microscope, and the suspension was taken in RPMI-1640 medium containing 10% FBS at 1×10^5 embryonic stages/ml. One ml. each was dispensed into individual wells of a 24 well tissue culture plate. One set of wells was taken as untreated control containing only medium with 10% FBS. […] Motility of the Mf was scored under an inverted microscope. After appropriate treatment and incubation, each set of the cultured embryonic stages of S. digitata were harvested from the 24 well tissue culture plate separately in 15 ml. sterile centrifuge tubes, washed with PBS twice and stained as per requirement following manufacturer's instructions as described below. This was followed by two times washing with PBS and final suspension of the stained embryonic stages was taken in 0.5 ml of sheath fluid (BD Biosciences 342003) before their acquisition in the flow cytometer (BD FACS Calibur, Becten and Dickinson, USA). Analysis was performed on 10,000-acquired events depicted as Dot Plots and Histogram Plots using Cellquest Pro soft ware. All plots were representative of at least 3 experiments. The distinctly clustered populations obtained consistently in the Dot plots for the intra uterine embryonic stages of S. digitata (FIG. 1 a) were gated for Mfs (R-1) and eggs (R-2 and R-3) and analyzed for different assays for apoptosis as described below. After in vitro culture for 24 hours with apoptosis inducing reagents the embryonic stages were harvested in 15 ml. sterile centrifuge tubes and fixed for 60 minutes at 0° C. in 1% paraformaldehyde (Sigma P 6148) in PBS. The suspension was washed first with PBS and then with 1× permeabilisation buffer (eBioscience 00-8333-56) and finally resuspended in 100 μl of 1× permeabilisation buffer at 1×10^5 embryonic stages per ml. The intracellular expression of CED-4 was scored by incubation of the fixed and permeabilised embryonic stages with primary goat antibodies—anti CED-4 (Santacruz sc-9193) followed by probing with PE conjugated secondary anti goat IgG-PE (Santacruz sc-3747) antibodies. Incubation of both primary and secondary antibodies (both 1/100 diluted) was done successively in 1× permeabilisation buffer (e Bioscience 00-8333-56) for 1 hr and 45 minutes respectively. The suspension of stained embryonic stages was then washed with PBS twice and finally reading was taken by flow cytometry or confocal microscopy."}}, "note": "Several values for one entry are separate records, joined by “and”; a condition that tells them apart may be missing. Identical values can stand only once.", "data": [{"smiles": "OO", "note": "[H2O2]", "values": [{"measurement": "GMI (Geometric Mean Intensity) of Fluorescence, PARP Cleavage", "setting": "[1]; Eggs, 10 μM", "value": "70.72 and 75.32 and 78.52"}, {"measurement": "GMI (Geometric Mean Intensity) of Fluorescence, PARP Cleavage", "setting": "[1]; Microfilariae, 10 μM", "value": "8.39 and 7.99 and 8.02"}, {"measurement": "GMI (Geometric Mean Intensity) of Fluorescence, CED-4 Expression", "setting": "[2]; Eggs, 10 μM", "value": "99.36 and 100.32 and 95.29"}, {"measurement": "GMI (Geometric Mean Intensity) of Fluorescence, CED-4 Expression", "setting": "[2]; Microfilariae, 10 μM", "value": "15.72 and 17.33 and 16.26"}]}, {"smiles": "CC1=CC(=O)c2c(O)cccc2C1=O", "note": "[Plumbagin]", "values": [{"measurement": "GMI (Geometric Mean Intensity) of Fluorescence, PARP Cleavage", "setting": "[1]; Eggs, 10 μM", "value": "102.15 and 109.36 and 110.25"}, {"measurement": "GMI (Geometric Mean Intensity) of Fluorescence, PARP Cleavage", "setting": "[1]; Microfilariae, 10 μM", "value": "10.01 and 11.32 and 9.67"}, {"measurement": "GMI (Geometric Mean Intensity) of Fluorescence, CED-4 Expression", "setting": "[2]; Eggs, 10 μM", "value": "209.76 and 213.57 and 210.32"}, {"measurement": "GMI (Geometric Mean Intensity) of Fluorescence, CED-4 Expression", "setting": "[2]; Microfilariae, 10 μM", "value": "35.97 and 38.27 and 33.39"}]}, {"smiles": "CN[C@@H]1C[C@H]2O[C@@](C)([C@@H]1OC)n1c3ccccc3c3c4c(c5c6ccccc6n2c5c31)C(=O)NC4", "note": "[Staurosporine]", "values": [{"measurement": "GMI (Geometric Mean Intensity) of Fluorescence, PARP Cleavage", "setting": "[1]; Eggs, 1 μM", "value": "63.95 and 66.56 and 70.27"}, {"measurement": "GMI (Geometric Mean Intensity) of Fluorescence, PARP Cleavage", "setting": "[1]; Microfilariae, 1 μM", "value": "6.57 and 6.21 and 5.49"}, {"measurement": "GMI (Geometric Mean Intensity) of Fluorescence, CED-4 Expression", "setting": "[2]; Eggs, 1 μM", "value": "95.67 and 97.28 and 96.32"}, {"measurement": "GMI (Geometric Mean Intensity) of Fluorescence, CED-4 Expression", "setting": "[2]; Microfilariae, 1 μM", "value": "9.01 and 9.92 and 8.25"}]}]}
